Test results as given in patent publication US9326506B2, “Preparation method, agricultural composition and applications of natural brassinolide analogs” (CHENGDU NEWSUN CROPSCIENCE CO., LTD, priority 2012, dated 2016).

System: rice
Test: Low temperature assay on rice seedlings
Type: in vivo
Procedure, shortened: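 Nine-day-old etiolated rice seedlings (grown on water at 30 °C±2 °C, dark) immersed in brassinolide analogues at 1–0.0001 mg/L or pure water, held at 1–5 °C for 24 hr. Plant height, leaf area, root weight read at 3, 6, 9, 12 days; leaf and tiller number at 12 days.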

## CC(C)[C@H](C)[C@@H](O)[C@H](O)[C@@H](C)[C@H]1CCC2C3COC(=O)C4C[C@H](O)[C@H](O)C[C@]4(C)C3CC[C@@]21C (stereo partly shown) [BR1]
0.1 mg/l, 4 °C, 12 days
  Number of leaf: 3
  Number of tiller: 2
  Weight of root: 3.1 g
0.1 mg/l, 5 °C, 3 days
  Area of leaf: 11.1 cm^2
  Height: 7.7 cm
  Weight of root: 2.9 g
0.1 mg/l, 5 °C, 6 days
  Area of leaf: 13.9 cm^2
  Height: 7.9 cm
  Weight of root: 3.2 g
0.1 mg/l, 5 °C, 9 days
  Area of leaf: 17.8 cm^2
  Height: 8.4 cm
  Weight of root: 3.5 g
0.1 mg/l, 5 °C, 12 days
  Area of leaf: 19 cm^2
  Height: 8.7 cm
  Number of leaf: 3
  Number of tiller: 2
  Weight of root: 4.1 g
1 mg/l, 1 °C, 3 days
  Area of leaf: 10 cm^2
  Height: 7.1 cm
  Weight of root: 2.8 g
1 mg/l, 1 °C, 6 days
  Area of leaf: 11.2 cm^2
  Height: 7.2 cm
  Weight of root: 3.1 g
1 mg/l, 1 °C, 9 days
  Area of leaf: 12.4 cm^2
  Height: 7.3 cm
  Weight of root: 3.4 g
1 mg/l, 1 °C, 12 days
  Area of leaf: 13 cm^2
  Height: 7.4 cm
  Number of leaf: 3
  Number of tiller: 3
  Weight of root: 3.9 g
1 mg/l, 2 °C, 3 days
  Area of leaf: 10.2 cm^2
  Height: 7.1 cm
  Weight of root: 2.8 g
1 mg/l, 2 °C, 6 days
  Area of leaf: 11.7 cm^2
  Height: 7.2 cm
  Weight of root: 3.0 g
1 mg/l, 2 °C, 9 days
  Area of leaf: 12.6 cm^2
  Height: 7.3 cm
  Weight of root: 3.2 g
1 mg/l, 2 °C, 12 days
  Area of leaf: 13 cm^2
  Height: 7.5 cm
  Number of leaf: 3
  Number of tiller: 3
  Weight of root: 3.9 g
1 mg/l, 3 °C, 3 days
  Area of leaf: 10.4 cm^2
  Height: 7.1 cm
  Weight of root: 2.5 g
1 mg/l, 3 °C, 6 days
  Area of leaf: 12 cm^2
  Height: 7.2 cm
  Weight of root: 2.6 g
1 mg/l, 3 °C, 9 days
  Area of leaf: 12.6 cm^2
  Height: 7.5 cm
  Weight of root: 2.9 g
1 mg/l, 3 °C, 12 days
  Area of leaf: 13.2 cm^2
  Height: 7.6 cm
  Number of leaf: 3
  Number of tiller: 2
  Weight of root: 2.9 g
1 mg/l, 4 °C, 3 days
  Area of leaf: 10.9 cm^2
  Height: 7.1 cm
  Weight of root: 2.5 g
1 mg/l, 4 °C, 6 days
  Area of leaf: 12.6 cm^2
  Height: 7.5 cm
  Weight of root: 2.7 g
1 mg/l, 4 °C, 9 days
  Area of leaf: 13.7 cm^2
  Height: 7.6 cm
  Weight of root: 3.0 g
1 mg/l, 4 °C, 12 days
  Area of leaf: 14 cm^2
  Height: 7.7 cm
  Number of leaf: 3
  Number of tiller: 2
  Weight of root: 3.2 g
1 mg/l, 5 °C, 3 days
  Area of leaf: 11.1 cm^2
  Height: 7.7 cm
  Weight of root: 2.9 g
1 mg/l, 5 °C, 6 days
  Area of leaf: 13.6 cm^2
  Height: 8.0 cm
  Weight of root: 3.5 g
1 mg/l, 5 °C, 9 days
  Area of leaf: 18.4 cm^2
  Height: 8.6 cm
  Weight of root: 3.7 g
1 mg/l, 5 °C, 12 days
  Area of leaf: 20 cm^2
  Height: 8.9 cm
  Number of leaf: 3
  Number of tiller: 2
  Weight of root: 4.5 g
In vivo
  Effects on resistance to low temperature compared among analogues: more than those of BR2, BR3 and BR4
